Results: patent publication US8173693B2, “Benzenesulfonamide derivatives and pharmaceutical composition thereof” (Purzer Pharmaceutical Co., Ltd., priority 2010, dated 2012)

Legend:
[1] = test system: lung carcinoma A549 cells; assay: SRB assay; assay type: cell-based; conditions: Homo sapiens, 48 hr
[2] = test system: Human gastric adenocarcinoma AGS cells; assay: SRB assay; assay type: cell-based; conditions: 48 hr
[3] = test system: Human breast carcinoma MCF-7 cells; assay: SRB assay; assay type: cell-based; conditions: MCF7, 48 hr
[4] = test system: Human colorectal adenocarcinoma HT-29 cells; assay: SRB assay; assay type: cell-based; conditions: 48 hr
[5] = test system: Human hepatoblastoma HepG2 cells; assay: SRB assay; assay type: cell-based; conditions: 48 hr
[6] = test system: Human breast carcinoma MCF-7 cells; assay: SRB assay; assay type: cell-based; conditions: MCF7, 48 hr; remark: listed apart in the source
Protocol: (§1) Human Bladder Cancer TSGH cells, Human hepatoblastoma HepG2 cells, Human colorectal adenocarcinoma HT-29 cells, human nasopharyngeal carcinoma KB cells, Human gastric adenocarcinoma AGS cells, Human breast carcinoma MCF-7 cells, lung carcinoma A549 cells, and Human prostate carcinoma PC-3 cells were used in the preliminary cytotoxicity assays of the benzenesulfonamide derivatives of the present invention, and the inhibition activity against the tumor cells was evaluated.
(§2) All cell lines were maintained in RPMI 1640 supplied with 10% fetal bovine serum into 96-well microtiter plates and maintained in a humidified chamber at 37° C. containing 5% CO2. After 24 hr, cell lines in partial wells were fixed in situ with 10% trichloroacetic acid (TCA) to represent a measurement at the time of drug addition (T0). Then, cell lines in other wells were incubated with the benzenesulfonamide derivatives of the present invention for an additional 48 hr, and fixed in situ with 10% TCA to represent a measurement at the time of stopping reaction (Tx). After rinsing the plates with PBS and air-drying, 0.4% sulforhodamine B solution (weight per volume in 1% acetic acid) was added to each well and the plates were incubated for 10 min at room temperature. Unbound sulforhodamine B was removed with 1% acetic acid and the plates were air-dried. Cells bound with sulforhodamine B was subsequently solubilized with 10 mM Tris base (Trizma; Sigma). Cell proliferation was determined by measuring the optical density at 515 nm using a Thermomax microplate reader (Molecular Devices, Sunnyvale, Calif.). The half-inhibition concention (GI50) of the benzenesulfonamide derivatives of the present invention was obtained from the detected optical density.

[7] = test system: lung carcinoma A549 cells; assay: SRB assay; assay type: cell-based; conditions: Homo sapiens, 48 hr; remark: listed apart in the source
Protocol: as §1, §2

[8] = test system: Human prostate carcinoma PC-3 cells; assay: SRB assay; assay type: cell-based; conditions: Homo sapiens; for GI50: PC-3, 48 h; for IC50: PC-3, 48 hr
Protocol: as §1, §2

[9] = test system: Human gastric adenocarcinoma AGS cells; assay: SRB assay; assay type: cell-based; conditions: 48 hr; remark: listed apart in the source
Protocol: as §1, §2

[10] = test system: Human hepatoblastoma HepG2 cells; assay: SRB assay; assay type: cell-based; conditions: 48 hr; remark: listed apart in the source
Protocol: as §1, §2

[11] = test system: Human colorectal adenocarcinoma HT-29 cells; assay: SRB assay; assay type: cell-based; conditions: 48 hr; remark: listed apart in the source
Protocol: as §1, §2

[12] = test system: tumor cells; assay: Preliminary cytotoxicity assays (MTT, SRB), tumor cell panel; assay type: cell-based; conditions: comparison over Tables 1-4
Protocol: as §1
(§3) All cell lines were maintained in RPMI 1640 supplied with 10% fetal bovine serum and maintained in a humidified chamber at 37° C. containing 5% CO2. Then, all cell lines were treated with compounds for 72 hr and subsequently incubated with 0.4 mg/mL of MTT at 37° C. for 2 hr. The medium was removed, and DMSO was added to dissolve MTT precipitate. Cell proliferation was determined by measuring the optical density at 540 nm using a Thermomax microplate reader (Molecular Devices, Sunnyvale, Calif.), and the IC50 values of the benzenesulfonamide derivatives of the present invention were calculated.
as §2, with “After rinsing the plates with PBS and air-drying, 0.4% sulforhodamine B solution (weight per volume in 1% acetic acid) was added to each well and the plates were incubated for 10 min at room temperature. Unbound sulforhodamine B was removed with 1% acetic acid and the plates were air-dried. Cells bound with sulforhodamine B was subsequently solubilized with 10 mM Tris base (Trizma; Sigma).” left out

[13] = test system: Human Bladder Cancer TSGH cells; assay: MTT assay; assay type: cell-based; conditions: 72 hr
Protocol: as §1, §3

[14] = test system: human nasopharyngeal carcinoma KB cells; assay: MTT assay; assay type: cell-based; conditions: Homo sapiens, KB; MTT assay, 72 hr
Protocol: as §1, §3

[15] = test system: Human hepatoblastoma HepG2 cells; assay: MTT assay; assay type: cell-based; conditions: 72 hr, read-out: IC50 HepaG2
Protocol: as §1, §3

[16] = test system: Human colorectal adenocarcinoma HT-29 cells; assay: MTT assay; assay type: cell-based; conditions: 72 hr
Protocol: as §1, §3

Row | Structure (SMILES) | IC50 [1] [µM] | IC50 [2] [µM] | IC50 [3] [µM] | melting point [°C] | IC50 [4] [µM] | IC50 [5] [µM] | GI50 [6] [µM] | GI50 [7] [µM] | GI50 [8] [µM] | IC50 [8] [µM] | GI50 [9] [µM] | GI50 [10] [µM] | GI50 [11] [µM] | inhibitory activity against the tumor cells (in words) [12] | IC50 [13] [µM] | IC50 [14] [µM] | IC50 [15] [µM] | IC50 [16] [µM]
1 | Cc1ccc(C)c2c1[nH]c1c(NS(=O)(=O)c3cccc(C(F)(F)F)c3)cccc12 [Compound 6j, N-(5,8-Dimethyl-9H-carbazol-1-yl)-3-trifluoromethylbenzenesulfonamide] | > 10 | > 10 | > 10 | 217 to 218 | > 10 | > 10 | > 10 | > 10 | > 10 | > 10 | > 10 | > 10 | > 10 |  |  |  |  | 
2 | COc1ccc(S(=O)(=O)Nc2cccc3c2[nH]c2ccccc23)cc1 [Compound 21a, N-(9H-Carbazol-1-yl)-4-methoxybenzenesulfonamide] | 1.7 | 0.07 | 4.4 | 204 to 206 | 0.07 | 0.08 | 0.07 | 0.9 | 0.2 | > 10 | 0.01 | 0.04 | 0.03 |  |  |  |  | 
3 | COc1ccc(S(=O)(=O)N(C)c2cccc3c2[nH]c2c(C)ccc(C)c23)cc1 [Compound 15c, N-(5,8-Dimethyl-9H-carbazol-1-yl)-N-methyl-4-methoxybenzenesulfonamide] | > 10 | > 10 | > 10 | 88 to 89 | > 10 | > 10 | > 10 | > 10 | > 10 | > 10 | > 10 | > 10 | > 10 |  |  |  |  | 
4 | O=S(=O)(Nc1cccc2c1[nH]c1ccccc12)c1cccc(C(F)(F)F)c1 [Compound 21b, N-(9H-Carbazol-1-yl)-3-trifluoromethylbenzenesulfonamide] | > 10 | > 10 | > 10 | 188 to 190 | > 10 | > 10 | > 10 | > 10 | > 10 | > 10 | > 10 | > 10 | > 10 |  |  |  |  | 
5 | Cc1ccc(C)c2c1[nH]c1c(NS(=O)(=O)c3ccc(Cl)s3)cccc12 [Compound 6k, 5-Chloro-thiophene-2-sulfonic acid (5,8-dimethyl-9H-carbazol-1-yl)amide] | 10 | > 10 | > 10 | 232 to 234 | 5.6 | 2.7 | > 10 | 6.5 | 4.6 | > 10 | 6.7 | 1.3 | 2.1 |  |  |  |  | 
6 | CCCN(c1cccc2c1[nH]c1c(C)ccc(C)c12)S(=O)(=O)c1ccc(OC)cc1 [Compound 17c, N-(5,8-Dimethyl-9H-carbazol-1-yl)-N-propyl-4-methoxybenzenesulfonamide] | 10 | > 10 | > 10 | 60 to 62 | 0.8 | 1.9 | 6.1 | 5.9 | 3.5 | 8.6 | 0.6 | 0.8 | 0.3 |  |  |  |  | 
7 | Cc1ccc(C)c2c1[nH]c1c(N(C)S(=O)(=O)c3cccc(C(F)(F)F)c3)cccc12 [Compound 15j, N-(5,8-Dimethyl-9H-carbazol-1-yl)-N-methyl-3-trifluoromethylbenzenesulfonamide] | > 10 | > 10 | > 10 | 192 to 194 | 10 | > 10 | 7.8 | > 10 | > 10 | > 10 | 7.8 | > 10 | 5.6 |  |  |  |  | 
8 | COc1ccc(S(=O)(=O)N(c2cccc3c2[nH]c2c(C)ccc(C)c23)C(C)C)cc1 [Compound 18c, N-(5,8-Dimethyl-9H-carbazol-1-yl)-N-isopropyl-4-methoxybenzenesulfonamide] | > 10 | > 10 | > 10 | 222 to 224 | 0.7 | 1.6 | 9.5 | 7.8 | 4 | 9.4 | 0.5 | 0.5 | 0.2 |  |  |  |  | 
9 | O=[N+]([O-])c1ccc(/N=N/c2c[nH]c3c(NS(=O)(=O)c4ccc(Cl)cc4)cccc23)cc1 [Compound 7a, 4-Chloro-N-[3-(4-nitrophenylazo)-1H-indol-7-yl]benzenesulfonamide] |  |  |  | 217 to 218 |  |  |  |  |  |  |  |  |  | higher than that of the compound 5d | 3.6 | 4.5 | 9.1 | 5.9
10 | O=S(=O)(Nc1cccc2c(/N=N/c3ccccc3)c[nH]c12)c1ccc(Cl)cc1 [Compound 7c, 4-Chloro-N-(3-phenylazo-1H-indol-7-yl)benzenesulfonamide] |  |  |  | 110 to 111 |  |  |  |  |  |  |  |  |  | higher than that of the compound 5d | 14.2 | 15.3 | 28.4 | 13.8
11 | Cc1ccc(C)c2c1[nH]c1c(N(C)S(=O)(=O)c3ccc(Cl)s3)cccc12 [Compound 15k, 5-Chloro-thiophene-2-sulfonic acid (5,8-dimethyl-9H-carbazol-1-yl)-methyl-amide] | > 10 | > 10 | > 10 | 179 to 181 | 3.9 | 1.6 | > 10 | 8.1 | 7 | > 10 | 7.5 | 0.7 | 0.3 |  |  |  |  | 
12 | CCN(c1cccc2c1[nH]c1c(C)ccc(C)c12)S(=O)(=O)c1ccc(OC)cc1 [Compound 16c, N-(5,8-Dimethyl-9H-carbazol-1-yl)-N-ethyl-4-methoxybenzenesulfonamide] | > 10 | 1 | 0.8 | 151 to 152 | 0.3 | 0.08 | 0.4 | 0.4 | 0.06 | 0.3 | 0.4 | 0.04 | 0.05 |  |  |  |  | 
